From US11000033B2, “Ketone or oxime compound, and herbicide” (NISSAN CHEMICAL CORPORATION, priority 2014, dated 2021)

Assays:
Assay type in all cases: in vivo
wheat [1] = experiment: Test Example 4: effect on crop by soil treatment (symbol e); conditions: application herbicide amount 320 g/ha
Summary of the method: (§1)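 Steps: fill box with sterilized diluvial soil; sow seed spot-like; cover with ~1.5 cm soil; grow in greenhouse (25° C. to 30° C.).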

rice = experiment: Test Example 4: effect on crop by soil treatment (symbol b); conditions: application herbicide amount 320 g/ha
Summary of the method: as §1

Stellaria media = experiment: Test Example 4: herbicidal effect by soil treatment (symbol P); conditions: application herbicide amount 320 g/ha
Summary of the method: (§2)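 Seeds were sown in sterilized diluvial soil, covered with about 1.5 cm of soil, and the soil surface was sprayed with a water-diluted emulsion of the compound at a predetermined rate. Plants grew in a greenhouse at 25° C. to 30° C.; effects were scored visually 3 weeks after application.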

corn [2] = experiment: Test Example 5: effect on crop by foliage application, plastic box (symbol c); conditions: 320 g/ha, 3 weeks after application
Summary of the method: (§3)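 Greenhouse test at 25° C. to 30° C. Seeds of crops and weeds were spot-sown in boxes of sterilized diluvial soil under roughly 1.5 cm soil cover, then grown for foliage treatment.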

Setaria viridis = experiment: Test Example 4: herbicidal effect by soil treatment (symbol G); conditions: application herbicide amount 320 g/ha
Summary of the method: as §2

Apera spica-venti = experiment: Test Example 5: herbicidal effect by foliage application, plastic box (symbol L); conditions: 320 g/ha, 3 weeks after application
Summary of the method: (§4)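 Seeds were sown in sterilized diluvial soil, covered with about 1.5 cm of soil and grown 14 days in a greenhouse at 25° C. to 30° C. An emulsifiable formulation diluted in water to a set rate was sprayed over foliage, and injury was scored 3 weeks later.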

soybean = experiment: Test Example 5: effect on crop by foliage application, plastic box (symbol d); conditions: 320 g/ha, 3 weeks after application
Summary of the method: as §3

Alopecurus myosuroides = experiment: Test Example 4: herbicidal effect by soil treatment (symbol J); conditions: application herbicide amount 320 g/ha
Summary of the method: as §2

[3] = test system: Echinochloa crus-galli var. crus-galli; experiment: Test Example 4: herbicidal effect by soil treatment (symbol H); conditions: application herbicide amount 320 g/ha
Summary of the method: as §2

[4] = test system: Echinochloa crus-galli var. crus-galli; experiment: Test Example 3: herbicidal effect by foliage application, Wagner pot (symbol H); conditions: application herbicide amount 320 g/ha
Summary of the method: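 Foliar spray of a water-diluted emulsion at a predetermined herbicide amount, applied to 14-day-old plants. Seedlings were raised in flooded alluvial soil (0.1–0.5 cm water) at 25–30 °C in a greenhouse. Injury was rated after 3 weeks against fixed criteria.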

wheat [5] = experiment: Test Example 5: effect on crop by foliage application, plastic box (symbol e); conditions: 320 g/ha, 3 weeks after application
Summary of the method: as §3

Digitaria ciliaris = experiment: Test Example 5: herbicidal effect by foliage application, plastic box (symbol F); conditions: 320 g/ha, 3 weeks after application
Summary of the method: as §4

rapeseed = experiment: Test Example 5: effect on crop by foliage application, plastic box (symbol g); conditions: 320 g/ha, 3 weeks after application
Summary of the method: as §3

Lolium multiflorum Lam. = experiment: Test Example 4: herbicidal effect by soil treatment (symbol K); conditions: application herbicide amount 320 g/ha
Summary of the method: as §2

Scirpus juncoides = experiment: Test Example 1: herbicidal activity, application before weed generation in submerged conditions (symbol B); conditions: application herbicide amount 320 g/ha
Summary of the method: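 0–5 visual score, 3 wk post-application. Submerged pots, alluvial soil, water 4 cm; seeds sown mixed, rice at 2.5 leaves transplanted. Emulsion diluted to predetermined dose, applied to water surface at sowing. 25–30 °C greenhouse.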

corn [6] = experiment: Test Example 4: effect on crop by soil treatment (symbol c); conditions: application herbicide amount 320 g/ha
Summary of the method: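 Seeds were sown in spots on sterilized diluvial soil in a plastic box and covered with about 1.5 cm of soil. Plants were then grown in a greenhouse at 25° C. to 30° C.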

Veronica persica = experiment: Test Example 5: herbicidal effect by foliage application, plastic box (symbol R); conditions: 320 g/ha, 3 weeks after application
Summary of the method: as §4

Compound	e (wheat) effect on crop grade (wheat [1])	b (directly sowed rice plant) effect on crop grade (rice)	P (Stellaria media) herbicidal effect grade (Stellaria media)	c: corn, effect on crop grade (corn [2])	G (Setaria viridis) herbicidal effect grade (Setaria viridis)	L: Apera spica-venti, herbicidal effect grade (Apera spica-venti)	d: soybean, effect on crop grade (soybean)	J (Alopecurus myosuroides) herbicidal effect grade (Alopecurus myosuroides)	H (Echinochloa crus-galli var. crus-galli) herbicidal effect grade [3]	herbicidal effect on H (Echinochloa crus-galli var. crus-galli), grade 0-5 [4]	e: wheat, effect on crop grade (wheat [5])	F: Digitaria ciliaris, herbicidal effect grade (Digitaria ciliaris)	g: rapeseed, effect on crop grade (rapeseed)	K (Lolium multiflorum Lam.) herbicidal effect grade (Lolium multiflorum Lam.)	Herbicidal effect grade, B: Scirpus juncoides (Scirpus juncoides)	c (corn) effect on crop grade (corn [6])	c: corn, effect on crop (criteria 0-5) (corn [2])	L: Apera spica-venti, herbicidal effect (criteria 0-5) (Apera spica-venti)	d: soybean, effect on crop (criteria 0-5) (soybean)	e: wheat, effect on crop (criteria 0-5) (wheat [5])	other results
CC(CC1CC(O)=C(c2c(C)cc(C)cc2C)C1=O)=NO (stereo not shown) [1-058]	0 (Herbicidal ratio of 5% or lower (almost no effect))	5 (Herbicidal ratio of 90% or more (almost completely withered))	0 (Herbicidal ratio of 5% or lower (almost no effect))	4 (Herbicidal ratio of 70% or higher and lower than 90%)	5 (Herbicidal ratio of 90% or more (almost completely withered))	5 (Herbicidal ratio of 90% or more (almost completely withered))	3 (Herbicidal ratio of 40% or higher and lower than 70%)	5 (Herbicidal ratio of 90% or more (almost completely withered))	5 (Herbicidal ratio of 90% or more (almost completely withered))	5 (Herbicidal ratio of 90% or more (almost completely withered))	5 (Herbicidal ratio of 90% or more (almost completely withered))	5 (Herbicidal ratio of 90% or more (almost completely withered))	4 (Herbicidal ratio of 70% or higher and lower than 90%)	5 (Herbicidal ratio of 90% or more (almost completely withered))	0 (Herbicidal ratio of 5% or lower (almost no effect))	4 (Herbicidal ratio of 70% or higher and lower than 90%)	–	–	–	–	–
CC(CC1CC(O)=C(c2c(C)cc(C)cc2C)C1=O)=NOCC[Si](C)(C)C (stereo not shown) [1-055]	0 (Herbicidal ratio of 5% or lower (almost no effect))	5 (Herbicidal ratio of 90% or more (almost completely withered))	0 (Herbicidal ratio of 5% or lower (almost no effect))	3 (Herbicidal ratio of 40% or higher and lower than 70%)	4 (Herbicidal ratio of 70% or higher and lower than 90%)	5 (Herbicidal ratio of 90% or more (almost completely withered))	2 (Herbicidal ratio of 20% or higher and lower than 40%)	1 (Herbicidal ratio of 5% or higher and lower than 20%)	4 (Herbicidal ratio of 70% or higher and lower than 90%)	5 (Herbicidal ratio of 90% or more (almost completely withered))	0 (Herbicidal ratio of 5% or lower (almost no effect))	3 (Herbicidal ratio of 40% or higher and lower than 70%)	3 (Herbicidal ratio of 40% or higher and lower than 70%)	5 (Herbicidal ratio of 90% or more (almost completely withered))	3 (Herbicidal ratio of 40% or higher and lower than 70%)	0 (Herbicidal ratio of 5% or lower (almost no effect))	–	–	–	–	–
CON=C(C)CC1CC(OC(=O)COc2cccc(C#N)c2)=C(c2c(C)cc(C)cc2C)C1=O (stereo not shown) [1-074]	4 (Herbicidal ratio of 70% or higher and lower than 90%)	5 (Herbicidal ratio of 90% or more (almost completely withered))	0 (Herbicidal ratio of 5% or lower (almost no effect))	–	5 (Herbicidal ratio of 90% or more (almost completely withered))	–	–	5 (Herbicidal ratio of 90% or more (almost completely withered))	5 (Herbicidal ratio of 90% or more (almost completely withered))	5 (Herbicidal ratio of 90% or more (almost completely withered))	–	–	–	5 (Herbicidal ratio of 90% or more (almost completely withered))	5 (Herbicidal ratio of 90% or more (almost completely withered))	4 (Herbicidal ratio of 70% or higher and lower than 90%)	5 (Herbicidal ratio of 90% or more (almost completely withered))	5 (Herbicidal ratio of 90% or more (almost completely withered))	4 (Herbicidal ratio of 70% or higher and lower than 90%)	5 (Herbicidal ratio of 90% or more (almost completely withered))	F: Digitaria ciliaris, herbicidal effect (criteria 0-5) (Digitaria ciliaris): 5 (Herbicidal ratio of 90% or more (almost completely withered)); g: rapeseed, effect on crop (criteria 0-5) (rapeseed): 4 (Herbicidal ratio of 70% or higher and lower than 90%)
CON=C(C)CC1CC(OC(=O)COc2ccc(F)cc2)=C(c2c(C)cc(C)cc2C)C1=O (stereo not shown) [1-073]	4 (Herbicidal ratio of 70% or higher and lower than 90%)	5 (Herbicidal ratio of 90% or more (almost completely withered))	–	–	5 (Herbicidal ratio of 90% or more (almost completely withered))	–	–	5 (Herbicidal ratio of 90% or more (almost completely withered))	5 (Herbicidal ratio of 90% or more (almost completely withered))	5 (Herbicidal ratio of 90% or more (almost completely withered))	–	–	–	5 (Herbicidal ratio of 90% or more (almost completely withered))	5 (Herbicidal ratio of 90% or more (almost completely withered))	4 (Herbicidal ratio of 70% or higher and lower than 90%)	4 (Herbicidal ratio of 70% or higher and lower than 90%)	5 (Herbicidal ratio of 90% or more (almost completely withered))	3 (Herbicidal ratio of 40% or higher and lower than 70%)	5 (Herbicidal ratio of 90% or more (almost completely withered))	R: Veronica persica, herbicidal effect (criteria 0-5) (Veronica persica): 3 (Herbicidal ratio of 40% or higher and lower than 70%); F: Digitaria ciliaris, herbicidal effect (criteria 0-5) (Digitaria ciliaris): 5 (Herbicidal ratio of 90% or more (almost completely withered)); g: rapeseed, effect on crop (criteria 0-5) (rapeseed): 4 (Herbicidal ratio of 70% or higher and lower than 90%)
